Assay results published in patent US11959486B2, “Stable liquid formulation of AMG 416 (etelcalcetide)” (AMGEN INC., priority 2013, dated 2024).

Assay: Stability of liquid formulations over range of pH 2-6 in succinate-buffered saline, HPLC purity, with extrapolation (Example 3)
Assay type: physicochemical
Details: for Observed degradation at 28 days / Calculated Degradation at 1 y RT / Calculated Degradation at 2 y 5° C. / Calculated Degradation at 2 y RT / Calculated Degradation at 360 d: 10 mg/mL
Method: The solution was divided evenly into five 4 mL portions which were adjusted to pH 2, 3, 4, 5 and 6, respectively, with NaOH and HCl as needed. Three 1 mL solutions were aliquoted from each portion and incubated at 2-8° C., room temperature (about 25° C.), and 40° C., respectively. The remaining 1 mL solution in each aliquot was diluted with pH 4.5 succinate buffered saline to 4 mL of 2.5 mg/mL peptide concentration, pH adjusted, and incubated in the same manner.
Based on the extent of degradation at 28 days, predictions of the extent of degradation were calculated as described, supra. Bolded values indicate conditions which show less than 10% degradation, and which may be preferred for a liquid formulation. Conditions where the sample at 28 days show slightly higher purity than the initial data are presented as 0.0% for all projections.
At each pH value, the degradation data for each of three temperatures is compared to data from the other two temperatures to calculate the observed acceleration. The predicted acceleration is by simple application of Arrhenius principles as described above.

For CC(=O)N[C@H](CSSC[C@H](N)C(=O)O)C(=O)N[C@H](C)C(=O)N[C@H](CCCNC(=N)N)C(=O)N[C@H](CCCNC(=N)N)C(=O)N[C@H](CCCNC(=N)N)C(=O)N[C@H](C)C(=O)N[C@H](CCCNC(=N)N)C(N)=O [AMG 416, N-acetyl-D-cysteinyl-D-alanyl-D-arginyl-D-arginyl-D-arginyl-D-alanyl-D-arginamide disulfide with L-cysteine], the “Observed degradation at 28 days” value (pH 2, 2-8° C.) was 0.3%, the “Observed degradation at 28 days” value (pH 2, 40° C.) was 5.3% and the “Observed degradation at 28 days” value (pH 2, RT) was 0.6%. The “Calculated Degradation at 1 y RT” value (pH 2, from 2-8° C. data) was 15.4%, the “Calculated Degradation at 2 y 5° C.” value (pH 2, from 2-8° C. data) was 7.7% and the “Calculated Degradation at 2 y RT” value (pH 2, from 2-8° C. data) was 30.7%. For the same compound, the “Calculated Degradation at 360 d” value (pH 2, from 2-8° C. data) was 3.8%, the “Calculated Degradation at 1 y RT” value (pH 2, from 40° C. data) was 17.1% and the “Calculated Degradation at 2 y 5° C.” value (pH 2, from 40° C. data) was 8.6%. For the same compound, the “Calculated Degradation at 2 y RT” value (pH 2, from 40° C. data) was 34.2%, the “Calculated Degradation at 360 d” value (pH 2, from 40° C. data) was 68.4% and the “Calculated Degradation at 1 y RT” value (pH 2, from RT data) was 8.1%. The “Calculated Degradation at 2 y 5° C.” value (pH 2, from RT data) was 4.0%, the “Calculated Degradation at 2 y RT” value (pH 2, from RT data) was 16.1% and the “Calculated Degradation at 360 d” value (pH 2, from RT data) was 8.1%. For the same compound, the “Observed degradation at 28 days” value (pH 3, 2-8° C.) was −0.2%, the “Observed degradation at 28 days” value (pH 3, 40° C.) was 1.1% and the “Observed degradation at 28 days” value (pH 3, RT) was 0.2%. The “Calculated Degradation at 1 y RT” value (pH 3, from 2-8° C. data) was 0.0%, the “Calculated Degradation at 2 y 5° C.” value (pH 3, from 2-8° C. data) was 0.0% and the “Calculated Degradation at 2 y RT” value (pH 3, from 2-8° C. data) was 0.0%. For the same compound, the “Calculated Degradation at 360 d” value (pH 3, from 2-8° C. data) was 0.0%, the “Calculated Degradation at 1 y RT” value (pH 3, from 40° C. data) was 3.5% and the “Calculated Degradation at 2 y 5° C.” value (pH 3, from 40° C. data) was 1.8%. For the same compound, the “Calculated Degradation at 2 y RT” value (pH 3, from 40° C. data) was 7.0%, the “Calculated Degradation at 360 d” value (pH 3, from 40° C. data) was 14.1% and the “Calculated Degradation at 1 y RT” value (pH 3, from RT data) was 2.6%. For the same compound, the “Calculated Degradation at 2 y 5° C.” value (pH 3, from RT data) was 1.3%, the “Calculated Degradation at 2 y RT” value (pH 3, from RT data) was 5.1% and the “Calculated Degradation at 360 d” value (pH 3, from RT data) was 2.6%. For the same compound, the “Observed degradation at 28 days” value (pH 4, 2-8° C.) was −0.1%, the “Observed degradation at 28 days” value (pH 4, 40° C.) was 14.3% and the “Observed degradation at 28 days” value (pH 4, RT) was 0.7%. The “Calculated Degradation at 1 y RT” value (pH 4, from 2-8° C. data) was 0.0%, the “Calculated Degradation at 2 y 5° C.” value (pH 4, from 2-8° C. data) was 0.0% and the “Calculated Degradation at 2 y RT” value (pH 4, from 2-8° C. data) was 0.0%. The “Calculated Degradation at 360 d” value (pH 4, from 2-8° C. data) was 0.0%, the “Calculated Degradation at 1 y RT” value (pH 4, from 40° C. data) was 45.8% and the “Calculated Degradation at 2 y 5° C.” value (pH 4, from 40° C. data) was 22.9%. The “Calculated Degradation at 2 y RT” value (pH 4, from 40° C. data) was 91.7%, the “Calculated Degradation at 360 d” value (pH 4, from 40° C. data) was >100% and the “Calculated Degradation at 1 y RT” value (pH 4, from RT data) was 8.6%. The “Calculated Degradation at 2 y 5° C.” value (pH 4, from RT data) was 4.3%, the “Calculated Degradation at 2 y RT” value (pH 4, from RT data) was 17.1% and the “Calculated Degradation at 360 d” value (pH 4, from RT data) was 8.6%. For the same compound, the “Observed degradation at 28 days” value (pH 5, 2-8° C.) was 0.3%, the “Observed degradation at 28 days” value (pH 5, 40° C.) was 34.9% and the “Observed degradation at 28 days” value (pH 5, RT) was 5.6%. The “Calculated Degradation at 1 y RT” value (pH 5, from 2-8° C. data) was 13.8%, the “Calculated Degradation at 2 y 5° C.” value (pH 5, from 2-8° C. data) was 6.9% and the “Calculated Degradation at 2 y RT” value (pH 5, from 2-8° C. data) was 27.6%. For the same compound, the “Calculated Degradation at 360 d” value (pH 5, from 2-8° C. data) was 3.5%, the “Calculated Degradation at 1 y RT” value (pH 5, from 40° C. data) was >100% and the “Calculated Degradation at 2 y 5° C.” value (pH 5, from 40° C. data) was 55.9%. The “Calculated Degradation at 2 y RT” value (pH 5, from 40° C. data) was >100%, the “Calculated Degradation at 360 d” value (pH 5, from 40° C. data) was >100% and the “Calculated Degradation at 1 y RT” value (pH 5, from RT data) was 71.4%. For the same compound, the “Calculated Degradation at 2 y 5° C.” value (pH 5, from RT data) was 35.7%, the “Calculated Degradation at 2 y RT” value (pH 5, from RT data) was >100% and the “Calculated Degradation at 360 d” value (pH 5, from RT data) was 71.4%. The “Observed degradation at 28 days” value (pH 6, 2-8° C.) was 1.9%, the “Observed degradation at 28 days” value (pH 6, 40° C.) was 45.1% and the “Observed degradation at 28 days” value (pH 6, RT) was 26.9%. The “Calculated Degradation at 1 y RT” value (pH 6, from 2-8° C. data) was 95.7%, the “Calculated Degradation at 2 y 5° C.” value (pH 6, from 2-8° C. data) was 47.8% and the “Calculated Degradation at 2 y RT” value (pH 6, from 2-8° C. data) was >100%. The “Calculated Degradation at 360 d” value (pH 6, from 2-8° C. data) was 23.9%, the “Calculated Degradation at 1 y RT” value (pH 6, from 40° C. data) was >100% and the “Calculated Degradation at 2 y 5° C.” value (pH 6, from 40° C. data) was 72.2%. The “Calculated Degradation at 2 y RT” value (pH 6, from 40° C. data) was >100%, the “Calculated Degradation at 360 d” value (pH 6, from 40° C. data) was >100% and the “Calculated Degradation at 1 y RT” value (pH 6, from RT data) was >100%. The “Calculated Degradation at 2 y 5° C.” value (pH 6, from RT data) was >100%, the “Calculated Degradation at 2 y RT” value (pH 6, from RT data) was >100% and the “Calculated Degradation at 360 d” value (pH 6, from RT data) was >100%. The “extrapolated degradation after 2 years at room temperature” value (2.5 or 10 mg/mL solutions at pH 3) was “less than 10%” and the “pH of least degradation” value (28 day point, 10 and 2.5 mg/mL) was “approximately 3.0”.
